# Laboratory results published in US4714699A, “2-tolylmorpholine derivatives and pharmaceutical compositions” (Societe Anonyme Dite: Laboratoire L. Lafon, priority 1983, dated 1987).
# Entries after “also recorded” stand apart in the source; their conditions may differ.
# What was measured:
# [1] = clinical trials, treatment of depressions; type: in vivo; settings: man
# From the text: In clinical trials, good results were obtained on man with CRL 40 875 (Example 1), CRL 40 912 (Example 2) and CRL 40 897 (Example 3) in the treatment of depressions.
# [2] = interaction with reserpine; type: in vivo, male mice; settings: i.p.
# Experimental: (§1) In the following tests, CRL 40 875, in solution in distilled water, was administered intraperitoneally in a volume of 20 ml/kg to male mice and 5 ml/kg to male rats.
# Four hours after the intraperitoneal injection of 2.5 mg/kg of reserpine, groups of 6 mice receive CRL 40 875. The effects on the temperature and ptosis are observed.
# (§2) In the following tests, CRL 40 897, in solution in distilled water (pH 4), was administered intraperitoneally in a volume of 20 ml/kg to male mice and in a volume of 5 ml/kg to male rats, the procedures being those given above for CRL 40 875.
# (§3) In the tests undertaken, CRL 40 912, in solution in distilled water (pH 4.5), was administered intraperitoneally in a volume of 20 ml/kg to male mice and in a volume of 5 ml/kg to male rats, the procedures being those given above for CRL 40 875.
# [3] = interaction with apomorphine in rats; type: in vivo, male rats; settings: i.p., 0.5 mg/kg apomorphine
# Experimental: as §1
# CRL 40 875 is administered to groups of 6 rats 0.5 hour before the subcutaneous injection of 0.5 mg/kg of apomorphine.
# as §2, §3
# [4] = interaction with oxotremorine; type: in vivo, male mice
# Experimental: as §1
# CRL 40 875 is administered to groups of 6 mice half an hour before the intraperitoneal injection of 0.5 mg/kg of oxotremorine.
# as §2, §3
# [5] = motility reduced by habituation to the enclosure; type: in vivo, male mice; settings: i.p.
# Experimental: as §1
# After they have stayed in the actimeters for 18 hours, the mice (6 per dose, 12 control animals) receive CRL 40 875. They are immediately returned to their respective enclosures and, half an hour later, their motility is recorded for 30 minutes.
# as §2, §3
# [6] = neuropsychopharmacological study, overall findings; type: in vivo, mice, rats; settings: for variation of sedative effects with dose: in vivo; for antidepressant effects: strong doses; for sedative effects: weak doses where stated
# Experimental: as §1, §2, §3
# (§4) The toxicological and neuropsychopharmacological studies undertaken in accordance with the procedures described above for CRL 40 875 enabled the following observations to be made: […]
# [7] = pretoxicity (LD-O, maximum non-lethal dose); type: in vivo, male mice
# Experimental: as §1, §2, §3, §4
# [8] = interaction with amphetamine; type: in vivo, male rats; settings: i.p.; 2 mg/kg amphetamine; rats
# Experimental: as §1, §2, §3
# [9] = traction test; type: in vivo, male mice; settings: i.p., mice
# Experimental: as §1
# (§5) The test is performed on groups of 10 mice half an hour after the administration of CRL 40 875.
# as §2
# [10] = overall behavior and reactivities in mice; type: in vivo, male mice
# Experimental: as §1
# Groups of three mice are observed before and then 15 minutes, 30 minutes, 1 hour, 2 hours, 3 hours and 24 hours after the administration of CRL 40 875.
# as §2, §4
# [11] = system: α-adrenergic; experiment: α-adrenergic stimulation; settings: in vivo
# [12] = motility reduced by hypoxic aggression; type: in vivo, male mice; settings: i.p.
# Experimental: as §1
# Half an hour after they have received CRL 40 875, the mice (10 per dose, 20 control animals) are subjected to acute hypobaric anoxia [pressure reduction of 600 mm Hg (i.e. about 8×10^4 pascals) in 90 seconds; release of vacuum in 45 seconds] and are then placed in an actimeter, where their motility is recorded for 10 minutes.
# as §2
# [13] = asphyxiant anoxia (gallamine triiodoethylate); type: in vivo, male mice; settings: i.p., mice
# Experimental: as §1
# Groups of 20 mice receive CRL 40 875 half an hour before the intraperitoneal administration of 32 mg/kg of gallamine triidoethylate (which is a reference curarizing agent).
# as §2, §3
# [14] = action on the spontaneous motility; type: in vivo, male mice; settings: mice
# Experimental: as §1
# Half an hour after they have received CRL 40 875, the mice (6 per dose, 12 control animals) are placed in an actimeter, where their motility is recorded for 30 minutes.
# as §2
# [15] = action on the intergroup aggressiveness; type: in vivo, male mice; settings: i.p., mice
# Experimental: as §1
# After they have stayed for 3 weeks in the two halves of a cage divided by an opaque partition, groups of 3 mice receive CRL 40 875. Half an hour later, the two groups from the same cage are brought together by removal of the partition, and the number of fights which occur in 10 minutes is noted.
# as §2, §3
# [16] = electric shock; type: in vivo, male mice; settings: i.p., mice
# Experimental: as §1, §5, §2
# [17] = interaction with apomorphine in mice; type: in vivo, male mice
# Experimental: as §1
# Groups of 6 mice receive CRL 40 875 0.5 hour before the subcutaneous injection of 1 or 16 mg/kg of apomorphine.
# as §2, §3
# [18] = four plate test; type: in vivo, male mice; settings: i.p., mice
# Experimental: as §1, §5, §2
# [19] = cardiovascular study in dogs; type: in vivo
# [20] = cardiovascular study in rats; type: in vivo; settings: wake rats
# [21] = high dose (64 mg/kg) i.p., mice
# [22] = anesthetized dogs, intraduodenal (CRL 40 903: then intravenous)
# [23] = intraduodenal, anesthetized dogs
smiles,measurement,setting,value
"Cc1ccc(C2CN(C)CCO2)cc1.Cl (stereo not drawn) [CRL 40 897, 2-p-tolyl-4-methylmorpholine hydrochloride]",results in the treatment of depressions,[1],good results
same,effect on the hypothermia and ptosis induced by reserpine,[2]; mice,does not modify the hypothermia and ptosis induced by reserpine
same,effect on stereotypies induced by apomorphine,[3],does not modify the stereotypies induced by apomorphine
same,minimal effective dose,"[4]; Mus musculus, ip, mice, read-out: dose as from which hypothermic effect is distinct",≥ 4 mg/kg
same,effect on the temperature drop induced by oxotremorine,[4]; [21],partially counteracts the temperature drop induced by oxotremorine
same,effect on signs of peripheral cholinergic stimulation induced by oxotremorine,"[4]; i.p., mice",leaves unchanged the signs of peripheral cholinergic stimulation induced by oxotremorine
same,effect on the trembling due to oxotremorine,"[4]; i.p., mice",not influenced
same,resumption in the activity of mice accustomed to their enclosure,[5],does not cause a resumption in the activity of mice accustomed to their enclosure
same,variation of sedative effects with dose,[6],"increase continuously with the dose administered, up to a maximum value, and then decrease continuously and progressively as the dose increases"
same,antidepressant effects,[6],antidepressants at strong doses
same,sedative effects,[6],"sedative effects (hypomotility, hypothermia, reduction of intergroup aggressiveness"
same,signs of toxicity,"[7]; 64 mg/kg i.p., mice","dyspnea, sedation"
same,"trembling, animals affected","[7]; 64 mg/kg i.p., mice",1/3
same,mortality,"[7]; 128 mg/kg i.p., groups of three mice",no mortality
same,signs of toxicity,"[7]; 128 mg/kg i.p., groups of three mice, hydrochloride","dyspnea, trembling; also recorded: sedation"
same,"convulsions, animals affected","[7]; 128 mg/kg i.p., mice",2/3
same,"convulsions, animals affected","[7]; 256 mg/kg i.p., mice",2/3
same,"copious salivation, animals affected","[7]; 256 mg/kg i.p., mice",1 out of 3
same,"death, animals affected","[7]; 256 mg/kg i.p., mice",3/3
same,signs of toxicity,"[7]; 256 mg/kg i.p., mice",dyspnea
same,time to death,"[7]; 256 mg/kg i.p., mice",10 min
same,effect on stereotypies induced by amphetamine,[8],The increase observed in the other groups merely reflect this anomaly
same,major motor incapacity,[9],does not cause major motor incapacity
same,duration of hypothermia,"[10]; 4 mg/kg i.p., mice",0.5 h
same,hypothermia (temperature change),"[10]; 4 mg/kg i.p., mice",-2.2 °C
same,duration of hypothermia,"[10]; 16 mg/kg i.p., mice",0.5 h
same,hypothermia (temperature change),"[10]; 16 mg/kg i.p., mice",-2.4 °C
same,"depressed respiration, animals affected","[10]; 64 mg/kg i.p., mice",2/3
same,duration of depressed respiration,"[10]; 64 mg/kg i.p., mice",3 h
same,duration of sedation,"[10]; 64 mg/kg i.p., mice",3 h
same,duration of significant salivation,"[10]; 64 mg/kg i.p., mice",1 h
same,hypothermia (temperature change),"[10]; 64 mg/kg i.p., mice",-2.2 °C
same,"sedation, animals affected","[10]; 64 mg/kg i.p., mice",3 out of 3
same,"significant salivation, animals affected","[10]; 64 mg/kg i.p., mice",3/3
same,α-adrenergic stimulant effect,[11],"stimulant effects, especially of the α-adrenergic type"
same,motor recovery in mice after reduced-pressure enclosure,[12],does not cause any improvement in the motor recovery
same,time taken for convulsions and death to occur following asphyxiant anoxia,[13],delays the time taken for convulsions and death to occur
same,minimal effective dose,"[14]; Mus musculus, ip, read-out: dose as from which motility is reduced",≥ 4 mg/kg
same,effect on spontaneous motor activity,[14]; as from 4 mg/kg i.p.,depresses the spontaneous motor activity of mice
same,effect on aggressiveness / number of fights,[15],does not cause a distinct reduction in the number of fights
same,effect on electric shock,[16],does not modify the convulsant and lethal effects of electric shock
same,minimal effective dose,"[17]; Mus musculus, ip, mice, read-out: dose as from which hypothermic effect is present",≥ 4 mg/kg
same,effect on the temperature drop induced by apomorphine,[17]; [21],partially counteracts the temperature drop induced by apomorphine
same,effect on righting behavior and stereotypies,"[17]; i.p., apomorphine, mice",without modifying the righting behavior and the stereotypies
same,number of punished passes,[18],does not cause an increase in the number of punished passes
"Cc1ccccc1C1CN(C(C)(C)C)CCO1 (stereo not drawn) [CRL 40 910, 2-o-tolyl-4-tert.-butylmorpholine]",femoral and vertebral flow rates,"[19]; 0.5 mg/kg intraduodenally, anesthetized dogs",significantly increases the femoral and vertebral flow rates
same,effect of propanolol on the increase in femoral flow rate,"[19]; anesthetized dogs, intraduodenal",not totally inhibited by propanolol
same,dose as from which tachycardia appears,[19]; [22],1 mg/kg
same,effect on the hypertension induced by noradrenaline,[19]; [22],reduces the hypertension induced by noradrenaline
same,effect on the hypotension / effects of isoprenaline,[19]; [22],does not modify the effects of isoprenaline
same,vasodilator property,"[19]; dog, in vivo",particularly interesting as vasodilators
same,effect on respiration,[19]; [23],stimulates respiration in dogs
same,rectal and skin temperatures,[19]; [23],increase progressively
same,"tachycardia, degree",[19]; [23],remains weak
same,venous pressure,[19]; [23],"increase progressively, as does the venous pressure"
same,effect of propanolol on the effects on heart beat and vertebral flow rate,"[19]; propanolol 1 mg/kg intravenously, anesthetized dogs",antagonized by propanolol
same,sedative effects,[6],sedative effects
same,LD-O (maximum non-lethal dose),"[7]; intraperitoneally, male mice",greater than 128 mg/kg
same,hypothermia,"[10]; 64 mg/kg i.p., male mice",moderate hypothermia
same,duration of hypothermia,"[10]; 64 mg/kg i.p., mice",0.5 h
"Cc1cccc(C2CN(C)CCO2)c1.Cl (stereo not drawn) [CRL 40 912, 2-m-tolyl-4-methylmorpholine hydrochloride]",results in the treatment of depressions,[1],good results
same,effect on the ptosis induced by reserpine,[2]; mice,significant antagonism of the ptosis induced by reserpine
same,effect on the hypothermic effects of reserpine,[2]; weaker dose,opposes those of reserpine
same,effect on the temperature drop caused by oxotremorine,"[4]; strong dose, i.p.",opposes the hypothermic effects of apomorphine and oxotremorine
same,resumption in the activity of mice accustomed to their enclosure,[5],does not cause a resumption in the motor activity of mice accustomed to their enclosure
same,effect on blood pressure,"[19]; 1 mg/kg i.p., anesthetized dogs",hypertensive agent
same,effect on hypertensive action,"[19]; 5 mg/kg i.p., anesthetized dogs",this effect decreases
same,dose as from which bradycardia is caused,"[19]; i.p., anesthetized dogs",≥ 5 mg/kg
same,variation of sedative effects with dose,[6],"increase continuously with the dose administered, up to a maximum value, and then decrease continuously and progressively as the dose increases"
same,antidepressant effects,[6]; hydrochloride,antidepressant at a strong dose; also recorded: antidepressants at strong doses
same,sedative effects,[6]; hydrochloride,"sedative effects (hypomotility, hypothermia) comparable to those of α-adrenergic blocking substances or to clonidine; also recorded: acts as a sedative at a weak dose; also recorded: sedative effects (hypomotility, hypothermia, reduction of intergroup aggressiveness"
same,effect on stereotypies induced by amphetamine,[8],does not reduce the intensity of the stereotypies induced by amphetamine
same,α-adrenergic stimulant effect,[11]; hydrochloride,"effect of the α-stimulant type; also recorded: very distinct peripheral α-adrenergic stimulant action (piloerection, exophthalmos, significant antagonism of the ptosis induced by reserpine); also recorded: stimulant effects, especially of the α-adrenergic type"
same,bradycardia,[20],bradycardia is of short duration
same,mean blood pressure,[20],no action on the mean blood pressure
same,time taken for convulsions and death to occur following asphyxiant anoxia,[13],delay in the time taken for convulsions and death to occur
same,effect on aggressiveness / number of fights,[15],reduction of aggressiveness
same,effect on the hypothermic effects of apomorphine,"[17]; strong dose, i.p.",opposes the hypothermic effects of apomorphine
